From ChEMBL document CHEMBL3392976, “The discovery of novel 3-(pyrazin-2-yl)-1H-indazoles as potent pan-Pim kinase inhibitors” (Bioorg Med Chem Lett, 2015)

Tests used:
in vivo [1] = conditions: Sprague-Dawley, rat, iv, 2 mg/kg
in vivo [2] = conditions: Sprague-Dawley, rat, iv, 2 mg/kg; remark: listed apart in the source
in vivo [3] = conditions: Sprague-Dawley, rat, iv, 2 mg/kg; remark: listed apart in the source
in vivo [4] = conditions: Sprague-Dawley, rat, plasma, po, 5 mg/kg
in vivo [5] = conditions: Sprague-Dawley, rat, po, 5 mg/kg

**Q.** What does the source list for `Fc1cccc(F)c1-c1ccc2[nH]nc(-c3cncc(O[C@H]4CNCCC45CC5)n3)c2c1`?
**A.** clearance (in vivo [1]): 16.7 mL/min/kg; Vd (in vivo [2]): 3.7 L/kg; half-life (in vivo [3]): 2.7 h; AUC (in vivo [4]): 12.2 µM·h; bioavailability (in vivo [5]): 89%
